In patent US20020071869A1, “Microparticle composition and method” (priority 2000, published 2002):

Experiment: Critical micelle concentration of surfactant
Type: physicochemical
Details: at 25° C.

critical micelle concentration: 8.1 mM
SMILES: CCCCCCCCCCCCOS(=O)(=O)[O-].[Na+] [SDS, sodium dodecyl sulfate]
